Laboratory results as given in patent US20080063628A1, “METHODS TO PROMOTE CELL DIFFERENTIATION” (priority 2006, published 2008).

System: amniotic fluid-derived cell line
Test: Two high dose trichostatin A treatments (first 48 h), gene expression by RT-PCR (Example 9);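 on Gata-1 RT-PCR detection cycle: lower cycle number means higher gene expression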;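 on HNF-3 beta RT-PCR detection cycle: lower cycle number means higher gene expression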
Assay type: cell-based, human
Details: for Gata1 gene expression / HNF-3 beta gene expression / Insulin gene expression / Pdx-1 gene expression / sox17 gene expression: 1.25 μM 0-48 h + 96-120 h
Description: Several cell lines obtained from different amniotic fluid specimens (see Example 14) and pancreas donors (see Example 13) were tested with similar results. Two lines at similar passage number but derived from different amniotic fluid specimens are shown in Table VIII-A and Table VIII-B for this example. One of these cell lines was also used in examples 2 and 4 above. In addition, this example also contains comparison data in Table VIII-C and Table VIII-D for a single pancreatic-derived stromal line grown to early and late passage number.
Amniotic fluid derived cells or pancreatic-derived stromal cells were seeded into 24-well tissue culture plates at a density of 5000/cm^2 and cultured in AMNIOMAX (Invitrogen) or DMEM with 10% FBS respectively under standard cell culture conditions until confluent. After reaching confluence, amniotic fluid derived cells were treated at time 0 hours with a dose of 1.25 μM trichostatin A, and pancreatic-derived stromal cells were treated with a dose of 5.0 μM trichostatin A solubilized in DMSO and medium. At time 48 hours, cell cultures underwent a complete medium change to remove all traces of trichostatin A. At time 96 hours, cell cultures were re-fed with fresh medium and received a second dose of trichostatin A at the same concentration as used previously. At time 120 hours, cell cultures again underwent a complete medium change and were cultured for an additional 24 hours or […] total incubation time. Samples were taken for RT-PCR at the times indicated in Table IX-A to D. RNA samples were obtained daily from the start of the experiment. Culture medium was removed, and cells were washed with PBS then collected in RLT with β-mercaptoethanol (Qiagen). RNA was purified using the RNeasy Mini Kit (Qiagen) and RNA quantity and quality was determined using a spectrophotometer. cDNA was made using the iScript cDNA synthesis kit (BioRad). Human pancreas cDNA was included as a control. Results were normalized against GAPDH expression levels.
[…] Samples of 20 ng cDNA was used in each Real-Time PCR reaction. RT-PCR was performed on the Applied Biosystems 7500, according to the methods described in Example 15. The data were analyzed using the accompanying software.
Real-time PCR amplifcation and quantitative analysis. Unless otherwise stated, all reagents were purchased from Applied Biosystems. Real-time PCR reactions were performed using the ABI PRISM™ 7500 Sequence Detection System. TAQMAN™ FAST UNIVERSAL PCR MASTER MIX™ (ABI, CA) was used with 20 ng of reverse transcribed RNA in a total reaction volume of 20 μl. Each cDNA sample was run in duplicate to allow correction of pipetting errors. Primers and FAM-labeled TAQMAN™ probes were used at concentrations of 200 nM. The level of expression for each target gene was normalized using the pre-developed Applied Biosystem's human glyceraldehyde-3-phosphate dehydrogenase (GAPDH) endogenous control kit. Primers and probes were designed using either ABI PRISM PRIMER EXPRESS™ software or a pre-developed ABI gene analysis kit. For each gene, either one of the primers or the probe were designed to be exon-boundary spanning. This eliminated the possibility of the primers/probe binding to any genomic DNA present. The primer and probe sets are listed as follows: Pdx-1 (Hs00426216), Insulin (Hs00355773), glucagon (Hs00174967), and FoxA2 (HNF 3-beta) (Hs00232764). The remaining primers were designed using the PRIMERS program (ABI, CA). After an initial 95° C. incubation for 20 sec, samples were cycled 40 times in two stages: a denaturation step at 95° C. for 3 sec, followed by an annealing/extension step at 60° C. for 30 sec.
For each primer/probe set, a cycle time value was determined as the cycle number at which the fluorescence intensity of the PCR reaction reached a specific value in the middle of the exponential region of amplification. […]

[1] = 1.25 μM, following the addition

With CC(/C=C/C(=O)NO)=C\[C@@H](C)C(=O)c1ccc(N(C)C)cc1 [trichostatin A] the Gata1 gene expression (24 hrs) was “+ (detectable between 35 and 40 cycles by RT-PCR)”, the “HNF-3 beta gene expression” value (24 hrs) was “+++ (detectable at less than 35 cycles by RT-PCR with SE less than 0.9)” and the Insulin gene expression (24 hrs) was “nd (not detectable at >40 cycles by RT-PCR)”. For the same molecule, the Pdx-1 gene expression (24 hrs) was “+++ (detectable at less than 35 cycles by RT-PCR with SE less than 0.9)”, the sox17 gene expression (24 hrs) was “+++ (detectable at less than 35 cycles by RT-PCR with SE less than 0.9)” and the Gata1 gene expression (48 hrs) was “nd (not detectable at >40 cycles by RT-PCR)”. For the same molecule, the “HNF-3 beta gene expression” value (48 hrs) was “+++ (detectable at less than 35 cycles by RT-PCR with SE less than 0.9)”, the Insulin gene expression (48 hrs) was “nd (not detectable at >40 cycles by RT-PCR)” and the Pdx-1 gene expression (48 hrs) was “+++ (detectable at less than 35 cycles by RT-PCR with SE less than 0.9)”. For the same molecule, the sox17 gene expression (48 hrs) was “+++ (detectable at less than 35 cycles by RT-PCR with SE less than 0.9)”, the Gata1 gene expression (72 hrs) was “nd (not detectable at >40 cycles by RT-PCR)” and the “HNF-3 beta gene expression” value (72 hrs) was “+ (detectable between 35 and 40 cycles by RT-PCR)”. The Insulin gene expression (72 hrs) was “nd (not detectable at >40 cycles by RT-PCR)”, the Pdx-1 gene expression (72 hrs) was “nd (not detectable at >40 cycles by RT-PCR)” and the sox17 gene expression (72 hrs) was “+++ (detectable at less than 35 cycles by RT-PCR with SE less than 0.9)”. The Gata1 gene expression (96 hrs) was “nd (not detectable at >40 cycles by RT-PCR)”, the “HNF-3 beta gene expression” value (96 hrs) was “nd (not detectable at >40 cycles by RT-PCR)” and the Insulin gene expression (96 hrs) was “nd (not detectable at >40 cycles by RT-PCR)”. The Pdx-1 gene expression (96 hrs) was “nd (not detectable at >40 cycles by RT-PCR)”, the sox17 gene expression (96 hrs) was “+++ (detectable at less than 35 cycles by RT-PCR with SE less than 0.9)” and the Gata1 gene expression (120 hrs) was “nd (not detectable at >40 cycles by RT-PCR)”. The “HNF-3 beta gene expression” value (120 hrs) was “+ (detectable between 35 and 40 cycles by RT-PCR)”, the Insulin gene expression (120 hrs) was “nd (not detectable at >40 cycles by RT-PCR)” and the Pdx-1 gene expression (120 hrs) was “+ (detectable between 35 and 40 cycles by RT-PCR)”. For the same molecule, the sox17 gene expression (120 hrs) was “+++ (detectable at less than 35 cycles by RT-PCR with SE less than 0.9)”, the “Pdx-1 RT-PCR detection cycle” value (1.25 μM, after the second treatment) was 37 cycles and the “Gata-1 RT-PCR detection cycle” value (1.25 μM, following first treatment) was 37 cycles. For the same molecule, the “HNF-3 beta RT-PCR detection cycle” value [1] was 31 cycles, the “Pdx-1 RT-PCR detection cycle” value [1] was 32 cycles and the “HNF-3 beta RT-PCR detection cycle” value (1.25 μM, following the second treatment) was 35 cycles.
